Laboratory results from patent US12568967B2, “Compositions comprising pyridine carboxylate herbicides with synthetic auxin herbicides or auxin transport inhibitors” (priority 2018, dated 2026).
Several values for one entry are separate records, joined by “and”; a condition that tells them apart may be missing. Equal values may be shown once.

Assays:
[1] = test system: Triticum aestivum (winter wheat, TRZAW); test: Greenhouse postemergence crop phytotoxicity TRZAW; assay type: in vivo; conditions: for % visual injury Obs / % visual injury, Obs: TRZAW; for % visual injury Obs: alone; for % visual injury, Obs: applied alone; for % visual injury (crop phytotoxicity): c1-3 Compound A 7.5/10/15
[2] = test system: Echinochloa crus-galli (barnyard grass, ECHCG); test: Greenhouse postemergence trial ECHCG; assay type: in vivo; conditions: Compound A 10 g/ha
Procedure: (§1) Seeds of the desired test plant species were planted in a 90:10% v/v (volume/volume) mixture of PRO-MIX® BX (Premier Tech Horticulture, Quakertown, PA, USA) and PROFILE® GREENS GRADE™ (Profile Products LLC, Buffalo Grove, IL, USA) planting mixture, which typically has a pH of 5.2 to 6.2 and an organic matter content of at least 50 percent, in plastic pots with a surface area of 103.2 square centimeters (cm^2). […] The plants were grown for 7-36 days (d) in a greenhouse with an approximate 14-hour (h) photo-period which was maintained at about 23° C. during the day and 22° C. during the night. Nutrients and water were added on a regular basis and supplemental lighting was provided with overhead metal halide 1000-Watt lamps as necessary. The plants were employed for testing when they reached the second or third true leaf stage.
(§2) Emulsifiable concentrates of each of each pyridine carboxylate herbicide (Compound A or Compound B) were prepared at 100 grams acid equivalent per liter (g ae/L). The emulsifiable concentrates also included a safener, cloquintocet-mexyl, at 120 grams active ingredient per liter (g ai/L), unless otherwise noted below. An aliquot of each emulsifiable concentrate was placed in a 25 mL glass vial and diluted with an aqueous mixture of 1.25% (v/v) ACTIROB® B esterified rapeseed oil (Bayer Crop Science, Research Triangle Park, NC, USA) or MSO® Concentrate with LECI-TECH® methylated soybean oil (Loveland Products, Loveland, CO, USA) to obtain concentrated stock solutions at the highest application rate for each herbicide, based upon a 12 milliliter (mL) application volume at a rate of 187 liters per hectare (L/ha). The concentrated stock solutions were further diluted with an aqueous mixture of 1.25% v/v ACTIROB® B or MSO® Concentrate with LECI-TECH® to obtain stock solutions at reduced application rates for each herbicide. Spray solutions of the herbicide combinations (Compound A or Compound B plus synthetic auxin herbicide or auxin transport inhibitor) were prepared by adding weighed amounts or aliquots of the synthetic auxin herbicide or auxin transport inhibitor to the stock solutions of Compound A or Compound B to form 12-mL spray solutions in two-way combinations.
(§3) The spray solutions were applied to the plant material with an overhead Mandel track sprayer equipped with 8002E nozzles calibrated to deliver 187 L/ha over an application area of 0.503 square meters (m^2) at a spray height of 18 inches (43 centimeters (cm)) above the average plant canopy. Control plants were sprayed in the same manner with the solvent blank. All pyridine carboxylate herbicide (component a) application rates are given as “g ae/ha” and all synthetic auxin herbicide or auxin transport inhibitor (component b) application rates are given as “g ai/ha.”
(§4) The treated plants and control plants were placed in a greenhouse as described above and watered by sub-irrigation to prevent wash-off of the test compounds. After 20-22 d, the condition of the test plants as compared with that of the control plants was determined visually and scored on a scale of 0 to 100 percent where 0 corresponds to no injury and 100 corresponds to complete kill.

[3] = test system: Matricaria chamomilla (wild chamomile, MATCH); test: Greenhouse postemergence trial MATCH; assay type: in vivo;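 further: greenhouse plants sprayed at second to third true leaf stage, injury rated by eye 20-22 d later versus solvent-blank controls on 0–100 scale, 0 no injury, 100 complete kill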
[4] = test system: Viola arvensis (field violet, VIOAR); test: Greenhouse postemergence trial VIOAR; assay type: in vivo; conditions: for % visual injury Obs: alone; for % visual injury, Obs: applied alone; for % visual injury: c1-3 Compound A 7.5/10/15
[5] = test system: Viola tricolor (wild pansy, VIOTR); test: Greenhouse postemergence trial VIOTR;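 further: greenhouse plants sprayed at second to third true leaf stage, injury rated visually after 20-22 d against solvent-blank sprayed controls, 0 meaning no injury and 100 complete kill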
Procedure: as §1, §2, §3, §4

[6] = test system: Polygonum convolvulus (wild buckwheat, POLCO); test: Greenhouse postemergence trial POLCO; assay type: in vivo
[7] = c4-5 Fluroxypyr-MHE 100/140, c6-8, c9-11 A 7.5/10/15 + Fluroxypyr-MHE 100, 140 g/ha
[8] = c4-6 Clopyralid 30/60/120, c7-9, c10-12, c13-15 A 7.5/10/15 + Clopyralid 30, 60, 120 g/ha
[9] = c4 Aminopyralid 5, c5-7 A 7.5/10/15 + Aminopyralid 5 g/ha
[10] = c4 Halauxifen-methyl 6, c5-7 A 7.5/10/15 + Halauxifen-methyl 6 g/ha
[11] = Compound A 10 g/ha, without safener
[12] = Viola tricolor, post-emergence, read-out: % visual injury Obs

N#CCOC(=O)c1nc(-c2ccc3cc[nH]c3c2F)c(F)c(N)c1Cl [Compound A, cyanomethyl 4-amino-3-chloro-5-fluoro-6-(7-fluoro-1H-indol-6-yl)pyridine-2-carboxylate]
5%: % visual injury [4, 7] | % visual injury [4, 8] | % visual injury [4, 9] | % visual injury [4, 10]
13%: MATCH % visual injury Obs ([3]; Compound A 10 g/ha (Table 42)) | MATCH % visual injury Obs ([3]; Compound A 10 g/ha (Table 43)) | MATCH % visual injury Obs ([3]; Compound A 10 g/ha (Table 44))
85%: pest or weed control at […] ([6]; Fallopia convolvulus, post-emergence, POLCO, Compound A 7.5 g/ha, read-out: % visual injury Obs)
18%: VIOTR Obs (% visual injury) ([5]; Compound A 10 g/ha)
95%: pest or weed control at 15 g/ha ([6]; Fallopia convolvulus, post-emergence, POLCO, Compound A 15 g/ha, read-out: % visual injury Obs) | visual injury, Obs ([6]; POLCO, Compound A 15 g/ha alone) | % visual injury Obs ([6]; POLCO, alone, 15 g/ha) | % visual injury, Obs ([6]; POLCO, applied alone, 15 g/ha)
78%: ECHCG Obs (% visual injury) [2] | POLCO Obs (% visual injury) [6, 11]
10%: visual injury, Obs ([4]; VIOAR, Compound A 10 g/ha alone) | % visual injury Obs ([4]; VIOAR, 10 g/ha) | % visual injury, Obs ([4]; VIOAR, 10 g/ha) | pest or weed control at […] ([4]; Viola arvensis, post-emergence, VIOAR, Compound A 7.5 g/ha, read-out: % visual injury Obs) | pest or weed control at 10 g/ha ([4]; Viola arvensis, post-emergence, VIOAR, Compound A 10 g/ha, read-out: % visual injury Obs)
23%: % visual injury (Obs) ([5]; VIOTR, alone, 10 g/ha)
58%: ECHCG Obs (% visual injury) ([2]; without safener) | % visual injury, Obs ([2]; ECHCG)
91%: POLCO % visual injury Obs ([6]; Compound A 10 g/ha (Table 42)) | POLCO % visual injury Obs ([6]; Compound A 10 g/ha (Table 43)) | POLCO % visual injury Obs ([6]; Compound A 10 g/ha (Table 44))
50%: visual injury, Obs ([5]; VIOTR, Compound A 15 g/ha alone) | % visual injury Obs ([5]; VIOTR, alone, 15 g/ha) | % visual injury, Obs ([5]; VIOTR, applied alone, 15 g/ha) | pest or weed control at 15 g/ha [5, 12]
90%: pest or weed control at 10 g/ha ([6]; Fallopia convolvulus, post-emergence, POLCO, Compound A 10 g/ha, read-out: % visual injury Obs) | % visual injury Obs ([6]; POLCO, Compound A 10 g/ha) | visual injury, Obs ([6]; POLCO, Compound A 10 g/ha alone) | % visual injury Obs ([6]; POLCO, alone 10 g/ha)
30%: % visual injury, Obs ([3]; MATCH, Compound A 10 g/ha) | % visual injury Obs ([5]; VIOTR, Compound A 10 g/ha) | visual injury, Obs ([5]; VIOTR, Compound A 10 g/ha alone) | % visual injury Obs ([5]; VIOTR, alone, 10 g/ha) | % visual injury, Obs ([5]; VIOTR, applied alone, 10 g/ha) | pest or weed control at 10 g/ha [5, 12]
0%: % visual injury Obs ([1]; 10 g/ha) | % visual injury Obs ([1]; 15 g/ha) | % visual injury, Obs ([1]; 10 g/ha) | % visual injury, Obs ([1]; 15 g/ha) | % visual injury (crop phytotoxicity) [1, 7] | % visual injury (crop phytotoxicity) [1, 8] | % visual injury (crop phytotoxicity) [1, 9] | % visual injury (crop phytotoxicity) [1, 10]
33% and 30%: % visual injury (Obs) ([3]; MATCH, alone 10 g/ha)
15%: pest or weed control at […] ([3]; Matricaria chamomilla, post-emergence, MATCH, Compound A 7.5 g/ha, read-out: % visual injury Obs) | visual injury, Obs ([4]; VIOAR, Compound A 15 g/ha alone) | % visual injury Obs ([4]; VIOAR, 15 g/ha) | % visual injury, Obs ([4]; VIOAR, 15 g/ha) | pest or weed control at 15 g/ha ([4]; Viola arvensis, post-emergence, VIOAR, Compound A 15 g/ha, read-out: % visual injury Obs) | VIOTR Obs (% visual injury) [5, 11] | % visual injury, Obs ([5]; VIOTR, Compound A 10 g/ha)
91% and 70% and 78%: % visual injury, Obs ([6]; POLCO, Compound A 10 g/ha)
86% and 96% and 70%: % visual injury (Obs) ([6]; POLCO, alone 10 g/ha)
90% and 43%: % visual injury, Obs ([6]; POLCO, applied alone, 10 g/ha)
20%: visual injury, Obs ([3]; MATCH, Compound A 10 g/ha alone) | visual injury, Obs ([3]; MATCH, Compound A 15 g/ha alone) | % visual injury Obs ([3]; MATCH, alone 10 g/ha) | % visual injury Obs ([3]; MATCH, alone, 15 g/ha) | % visual injury, Obs ([3]; MATCH, applied alone, 10 g/ha) | % visual injury, Obs ([3]; MATCH, applied alone, 15 g/ha) | pest or weed control at 10 g/ha ([3]; Matricaria chamomilla, post-emergence, MATCH, Compound A 10 g/ha, read-out: % visual injury Obs) | pest or weed control at 15 g/ha ([3]; Matricaria chamomilla, post-emergence, MATCH, Compound A 15 g/ha, read-out: % visual injury Obs)
91% and 70%: POLCO Obs (% visual injury) ([6]; Compound A 10 g/ha)
